Results as given in patent publication US20050171172A1, “Amide derivatives as PDGFR modulators” (Ambit Biosciences Corporation, priority 2003, published 2005).

What follows are compounds tested against T1, human PDGFR-β (Homo sapiens, UniProt P09619) (assay: phage-display-based competitive binding assay for PDGFR-β). Conditions: T7 phage displaying human PDGFR-β; Kd class; read-out: Binding Assay:PDGFRB (DKIN).
T1 construct: made in house
Method: The term “ND” represents non-determined values.
Kd values for the interactions between PDGFR-β and candidate small molecule ligands were measured by a phage-display-based competitive binding assay that is described in detail in U.S. Ser. No. 10/406,797 filed 2 Apr. 2003 and incorporated herein by reference. Briefly, T7 phage displaying human PDGFR-β were incubated with an affinity matrix coated with known PDGFR-β inhibitor in the presence of various concentrations of the soluble competitor molecules. […] The Kd for the interaction between the soluble competitor molecule and PDGFR-β is equal to the concentration of soluble competitor molecule that causes a 50% reduction in the number of phage recovered in the eluate compared to a control sample lacking soluble competitor. Kd values for the interaction between PDGFR-β and several small molecules are shown in below: […]

T1 sequence (P09619 33-1106): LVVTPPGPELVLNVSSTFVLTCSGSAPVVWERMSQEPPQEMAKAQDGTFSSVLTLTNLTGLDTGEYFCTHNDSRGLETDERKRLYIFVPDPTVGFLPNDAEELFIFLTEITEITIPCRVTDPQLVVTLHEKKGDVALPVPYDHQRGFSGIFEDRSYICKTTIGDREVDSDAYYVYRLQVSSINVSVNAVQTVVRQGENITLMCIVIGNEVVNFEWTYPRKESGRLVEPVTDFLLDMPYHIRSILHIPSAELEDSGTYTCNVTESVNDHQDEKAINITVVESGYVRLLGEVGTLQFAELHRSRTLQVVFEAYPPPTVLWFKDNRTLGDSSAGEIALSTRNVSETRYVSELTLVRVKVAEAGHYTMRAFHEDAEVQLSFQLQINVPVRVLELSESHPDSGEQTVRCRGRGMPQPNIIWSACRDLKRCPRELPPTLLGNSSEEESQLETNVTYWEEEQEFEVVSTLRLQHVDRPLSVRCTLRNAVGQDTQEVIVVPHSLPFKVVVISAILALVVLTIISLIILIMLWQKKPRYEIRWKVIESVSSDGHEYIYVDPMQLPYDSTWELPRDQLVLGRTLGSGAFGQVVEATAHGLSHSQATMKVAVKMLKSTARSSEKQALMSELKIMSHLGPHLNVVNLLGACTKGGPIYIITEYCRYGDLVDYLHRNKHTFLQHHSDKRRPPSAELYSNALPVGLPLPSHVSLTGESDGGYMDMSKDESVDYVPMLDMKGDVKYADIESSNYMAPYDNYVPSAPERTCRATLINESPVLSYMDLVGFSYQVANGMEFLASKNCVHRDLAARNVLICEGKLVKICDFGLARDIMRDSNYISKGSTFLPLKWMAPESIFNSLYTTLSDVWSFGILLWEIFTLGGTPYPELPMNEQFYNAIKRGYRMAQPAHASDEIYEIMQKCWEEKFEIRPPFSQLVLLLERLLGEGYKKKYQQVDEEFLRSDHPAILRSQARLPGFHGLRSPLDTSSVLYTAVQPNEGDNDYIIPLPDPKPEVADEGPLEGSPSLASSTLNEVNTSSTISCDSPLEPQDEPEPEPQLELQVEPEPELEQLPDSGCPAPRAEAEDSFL

| SMILES | Kd [µM] |
| --- | --- |
| CC(C)(C)c1cc(NC(=O)Cc2ccc(Cl)cc2)on1 | 0.1 to 1 |
| CC(C)(C)c1cc(NC(=O)Cc2ccc(NC(=O)c3ccc4cnccc4n3)cc2)no1 | < 0.1 |
| CC(C)(C)c1cc(NC(=O)Cc2ccc(NC(=O)c3cccc4cccnc34)cc2)no1 | 1 to 10 |
| Cc1nn(C)c(Cl)c1C(=O)Nc1ccc(CC(=O)Nc2cc(C(C)(C)C)on2)cc1 | 0.1 to 1 |
| Cc1cnc(NC(=O)Cc2ccc(OCc3ccccc3)cc2)s1 | > 10 |
| CSc1ncc(Br)c(C(=O)Nc2ccc(CC(=O)Nc3cc(C(C)(C)C)on3)cc2)n1 | < 0.1 |
| Cc1csc(NC(=O)Cc2ccc(OCc3ccccc3)cc2)n1 | > 10 |
| COc1ccc(CC(=O)Nc2cc(C(C)(C)C)no2)cc1 | < 0.1 |
| CC(C)Cc1ccc(C(C)C(=O)Nc2ccnn2-c2ccccc2)cc1 (stereo not shown) | > 10 |
| COc1cccc2cc([C@H](C)C(=O)Nc3cc(C(C)(C)C)on3)ccc12 | 0.1 to 1 |
| CC(C)(C)c1cc(NC(=O)Sc2ccc(Cl)cc2)no1 | > 10 |

Other lines, results leading:

| Kd [µM] | SMILES |
| --- | --- |
| > 10 | COc1cccc2sc(NC(=O)Cc3ccc(OCc4ccccc4)cc3)nc12 |
| > 10 | O=C(Cc1ccc(OCc2ccccc2)cc1)Nc1nc2ccccc2s1 |
| < 0.1 | CC(C)(C)c1cc(NC(=O)Cc2ccc(NC(=O)c3cnc4ccccc4c3)cc2)no1 |
| < 0.1 | Cn1cc(C(=O)Nc2ccc(CC(=O)Nc3cc(C(C)(C)C)on3)cc2)c2ccccc21 |
| 0.1 to 1 | CC(C)(C)c1cc(NC(=O)Cc2ccc(F)cc2)on1 |
| < 0.1 | CC(C)(C)c1cc(NC(=O)Cc2ccc(OCc3ccccc3)cc2)on1 |
| > 10 | Cc1cc(C)n(C(=O)Nc2ccc(Cl)cc2)n1 |
| > 10 | CC(C)(C)c1cc(NC(=O)Cc2ccc(O)cc2)no1 |
| 1 to 10 | COc1ccc(SC(=O)Nc2cc(C(C)(C)C)on2)cc1 |
| < 0.1 | CC(C)(C)c1cc(NC(=O)Cc2ccc(Br)cc2)on1 |
| > 10 | O=C(Cc1ccc(OCc2ccccc2)cc1)Nc1nc(-c2ccc(Cl)cc2)cs1 |
